Assay results published in US20220000919A1, “PLACENTAL DERIVED NATURAL KILLER CELLS FOR TREATMENT OF CORONAVIRUS INFECTIONS” (Celularity Inc., priority 2020, published 2022).

What was measured:
[1] = system: CD34+ cells; experiment: NK culture of CD34+ cells with CRL compounds: cell expansion and NK differentiation; format: cell-based, human; conditions: for supported NK (PNK-007) expansion and differentiation: compound at 10 μM during the first 14 days of culture; for CD56+/CD11a+ subpopulation compared to SRI / expansion, differentiation and cytotoxicity profiles compared to SRI: PNK-007 culture, 10 μM; for cell expansion compared to SRI positive control at Day 35: compound and SRI at 10 μM; for CD34 cell expansion at Day 14 of the culture: compound at 10 μM
Procedure: Stage 1 medium: 90% Stem Cell Growth Medium (SCGM) (CellGro®), 10% Human Serum-AB, supplemented with 25 ng/mL or 250 ng/mL recombinant human thrombopoietin (TPO), 25 ng/mL recombinant human Flt3L, 27 ng/mL recombinant human stem cell factor (SCF), 25 ng/mL recombinant human IL-7, 0.05 ng/mL or 0.025 ng/mL recombinant human IL-6, 0.25 ng/mL or 0.125 ng/mL recombinant human granulocyte colony-stimulating factor (G-CSF), 0.01 ng/mL or 0.025 ng/mL recombinant human granulocyte-macrophage colony-stimulating factor (GM-CSF), 0.10% gentamicin, and 1 to 10 μm StemRegenin-1 (SR-1) or other stem cell mobilizing agent.
Stage 2 medium: 90% SCGM, 10% Human Serum-AB, supplemented with 25 ng/mL recombinant human Flt3L, 27 ng/mL recombinant human SCF, 25 ng/mL recombinant human IL-7, 20 ng/mL recombinant human IL-15, 0.05 ng/mL or 0.025 ng/mL recombinant human IL-6, 0.25 ng/mL or 0.125 ng/mL recombinant human granulocyte colony-stimulating factor (G-CSF), 0.01 ng/mL or 0.025 ng/mL recombinant human granulocyte-macrophage colony-stimulating factor (GM-CSF), 0.10% gentamicin, and 1 to 10 μm SRI or other stem cell mobilizing agent.
Stage 3 medium: 90% STEMMACS™, 10% Human Serum-AB, 0.025 mM 2-mercaptoethanol (55 mM), supplemented with 22 ng/mL recombinant human SCF, 1000 U/mL recombinant human IL-2, 20 ng/mL recombinant human IL-7, 20 ng/mL recombinant human IL-15, 0.05 ng/mL or 0.025 ng/mL recombinant human IL-6, 0.25 ng/mL or 0.125 ng/mL recombinant human granulocyte colony-stimulating factor (G-CSF), 0.01 ng/mL or 0.025 ng/mL recombinant human granulocyte-macrophage colony-stimulating factor (GM-CSF), and 0.10% gentamicin.
Cells are seeded at Day 0 at 3×10^4 cells/mL in Stage 1 media, and cells are tested for purity by a CD34+ and CD45+ count and viability by 7AAD staining. At Day 5 cells are counted and seeded to a concentration of 1×10^5 cells/mL with Stage 1 medium. At Day 7 cells are counted and seeded to a concentration of 1×10^5 cells/mL with Stage 1 medium.
At Day 10, cells are counted and seeded to a concentration of 1×10^5 cells/mL in Stage 2 medium. At Day 12, cells are counted and seeded to a concentration of 3×10^5 cells/mL in Stage 2 medium. At Day 14, cells are counted and seeded in Stage 3 medium. Cells are maintained in Stage 3 media until day 35.
UCB CD34+ cells were cultivated in presence of cytokines including thrombopoietin, SCF, Flt3 ligand, IL-7, IL-15 and IL-2 for 35 days to produce three-stage NK cells, as described in Example 1. Multi-color flow cytometry was used to determine the phenotypic characteristics of three-stage NK cells.
(§1) For biological testing, the compounds were provided to culture to evaluate their effects on NK cell expansion and differentiation. Specifically, donors of CD34+ cells (StemCell Technology) were thawed and expanded in vitro following NK culture protocol. During the first 14 days of the culture, each CRL compounds was dissolved in DMSO and added to the culture at 10 μM concentration. SRI (at 10 μM) served as a positive control compound, while DMSO alone without any compound served as a negative control. At the end of the culture on Day 35, cell expansion, natural killer (NK) cell differentiation and cytotoxicity of the cells against K562 tumor cell line were characterized. Due to the large number of the compounds, the testing was performed in two experiments, CRL1-11 and CRL 12-22. The same donors were used for each experiment. Positive and negative controls were also included in both experiments.

[2] = system: K562 tumor cells; experiment: Cytotoxicity assay of compound cultured cells against K562 tumor cells; format: cell-based; conditions: K562, 10:1 effector to target ratio
Procedure: as §1
Cytotoxicity assay was run using compound cultured cells against K562 tumor cells at 10:1 effector to target ratio (FIG. 5) to evaluate cell functions.

Compound | supported NK (PNK-007) expansion and differentiation [1] | CD56+/CD11a+ subpopulation compared to SRI [1] | cell expansion compared to SRI positive control at Day 35 [1] | killing activities of cultured cells compared to those cultured with SRI [2] | expansion, differentiation and cytotoxicity profiles compared to SRI [1] | CD34 cell expansion at Day 14 of the culture [1]
CCC(C)Nc1cc(-c2cncc(C#N)c2)nc(NCCc2c[nH]c3ccccc23)n1 (centres unmarked) [CRL7, 5-(2-((2-(1H-indol-3-yl)ethyl)amino)-6-(sec-butylamino)pyrimidin-4-yl)nicotinonitrile] | all the compounds except CRL7 and CRL13 supported PNK-007 expansion and differentiation | – | – | – | – | –
CCC(C)Nc1nc(NCCc2c[nH]c3ccccc23)c2ccccc2n1 (centres unmarked) [CRL13, N^4-(2-(1H-indol-3-yl)ethyl)-N^2-(sec-butyl)quinazoline-1,4-diamine] | all the compounds except CRL7 and CRL13 supported PNK-007 expansion and differentiation | – | – | – | – | –
CC(C)c1csc2c(NCCc3c[nH]c4ccccc34)nc(-c3cncc(C#N)c3)nc12 [CRL17, 5-(4-((2-(1H-indol-3-yl)ethyl)amino)-7-isopropylthieno[3,2-d]pyrimidin-2-yl)nicotinonitrile] | – | increased CD56+/CD11a+ subpopulation | slightly less expansion compared to SRI | increased killing activities of the cells | – | –
CC(C)c1csc2c(NCCc3c[nH]c4ccccc34)nc(-c3cncc(F)c3)nc12 [CRL18, N-(2-(1H-indol-3-yl)ethyl)-2-(5-fluoropyridin-3-yl)-7-isopropylthieno[3,2-d]pyrimidin-4-amine] | – | increased CD56+/CD11a+ subpopulation | slightly less expansion compared to SRI | increased killing activities of the cells | – | –
Fc1cncc(-c2nc(NCCc3c[nH]c4ccccc34)c3occc3n2)c1 [CRL19, N-(2-(1H-indol-3-yl)ethyl)-2-(5-fluoropyridin-3-yl)furo[3,2-d]pyrimidin-4-amine] | – | – | – | – | very similar expansion, differentiation and cytotoxicity profiles as SRI | highest CD34 cell expansion
Cc1cncc(-c2nc(NCCc3c[nH]c4ccccc34)c3occc3n2)c1 [CRL20, N-(2-(1H-indol-3-yl)ethyl)-2-(5-methylpyridin-3-yl)furo[3,2d]pyrimidin-4-amine] | – | – | – | – | very similar expansion, differentiation and cytotoxicity profiles as SRI | highest CD34 cell expansion
Cc1cncc(-c2nc(NCCc3c[nH]c4ccccc34)c3scc(C(C)C)c3n2)c1 [CRL21, N-(2-(1H-indol-3-yl)ethyl)-7-isopropyl-2-(5-methylpyridin-3-yl)thieno[3,2-d]pyrimidin-4-amine] | – | increased CD56+/CD11a+ subpopulation | slightly less expansion compared to SRI | increased killing activities of the cells | – | –
N#Cc1cncc(-c2nc(NCCc3c[nH]c4ccccc34)c3occc3n2)c1 [CRL22, 5-(4-((2-(1H-indol-3-yl)ethyl)amino)furo[3,2-d]pyrimidin-2-yl)nicotinonitrile] | – | – | – | – | very similar expansion, differentiation and cytotoxicity profiles as SRI | highest CD34 cell expansion
